The experiment concerns the target T1, recombinant human CB1 receptors (Homo sapiens, UniProt P21554).
T1 construct: expressed in transfected cells; host or cells: HEK293
Description: Binding to CB1 Receptors. Particulars: [3H]-SR-141716A 1 nM; membranes from HEK293 cells expressing recombinant hCB1; Ki calculated from IC50 (Cheng-Prusoff). The protocol: The binding of compounds of Formula I to recombinant human CB1 receptors was determined in vitro by standard methods, with reference to the procedure described by Rinaldi-Carmona et al. (Rinaldi-Carmona, M., Pialot, F., Congy, C., Redon, E., Barth, F., Bachy, A., Breliere, J. C., Soubre, P., LeFur, G., Life Sci. 1996, 58(15), 1239-1247). Membranes were prepared from HEK293 cells expressing recombinant hCB1 receptors. Binding assays are performed in a total volume of 250 μL, containing [^3H]-SR-141716A (1 nM final concentration), membranes and test compound. Non-specific binding is determined using CP55,940 (10 μM). Serial dilutions are performed starting from test compounds as 10 mM solutions in DMSO. Compounds are tested over the concentration range 10^−10 M to 10^−5 M. Ki values are calculated from IC50 values using the Cheng-Prusoff equation.
T1 sequence (P21554 whole entry): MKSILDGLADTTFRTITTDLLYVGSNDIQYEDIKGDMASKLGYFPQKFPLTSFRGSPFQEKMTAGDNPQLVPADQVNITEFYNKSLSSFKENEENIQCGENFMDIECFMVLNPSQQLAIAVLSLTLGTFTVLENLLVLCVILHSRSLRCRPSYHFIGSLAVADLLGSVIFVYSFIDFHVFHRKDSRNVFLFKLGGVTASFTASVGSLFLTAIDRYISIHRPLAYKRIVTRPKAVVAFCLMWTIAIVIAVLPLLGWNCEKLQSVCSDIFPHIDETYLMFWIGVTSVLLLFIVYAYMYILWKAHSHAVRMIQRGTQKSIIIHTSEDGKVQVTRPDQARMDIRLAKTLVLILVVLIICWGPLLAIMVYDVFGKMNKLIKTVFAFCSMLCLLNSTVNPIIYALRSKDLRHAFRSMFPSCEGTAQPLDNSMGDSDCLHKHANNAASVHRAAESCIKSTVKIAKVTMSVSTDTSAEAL
In the case of `CC(C)(C)NC(=O)N1CC(OC(c2ccc(Cl)cc2)c2cccnc2Cl)C1` (racemic) [Example 32, 3-[4-chloro-[…]-(2-chloropyridin-3-yl)benzyloxy]-N-(tert-butyl)azetidine-1-carboxamide], the Ki was 27.7 nM.

In the case of `CC(C)(C)NC(=O)N1CC(OC(c2ccc(Cl)cc2)c2cccnc2Cl)C1` (single isomer, unassigned) [Example 34, 3-[(S*)-4-chloro-[…]-(2-chloropyridin-3-yl)benzyloxy]-N-(tert-butyl)azetidine-1-carboxamide], the Ki was 8.6 nM.

As for `CC(C)(C)OC(=O)N1CCCN(C(=O)N2CC(OC(c3ccc(Cl)cc3)c3ccccc3Cl)C2)CC1` (stereo not drawn) [Example 1, 4-[3-(2,4′-dichlorobenzhydryloxy)azetidine-1-carbonyl]-[1,4]diazepine-1-carboxylic acid tert-butyl ester], the Ki is 0.8 nM.

For the molecule `CN(Cc1ccccc1)C(=O)N1CC(OC(c2ccc(Cl)cc2)c2ccccc2C(F)(F)F)C1` (stereo not drawn) [Example 4, 3-[2-(trifluoromethyl)-4′-chlorobenzhydryloxy]-N-methyl-N-benzyl-azetidine-1-carboxamide], the Ki is 1.5 nM. Consider `CO[C@H](C(=O)N1CC(OC(c2ccc(Cl)cc2)c2ccc(Cl)cc2Cl)C1)c1ccccc1` (stereo partly drawn) [Example 11, 3-(2,4,4′-trichlorobenzhydryloxy)-1-[(S)-2-methoxy-2-phenylethanoyl]azetidine], for which the Ki is 3.2 nM. As for `CCCCS(=O)(=O)N1CC(OC(c2ccc(Cl)cc2)c2ccc(Cl)cc2Cl)C1` (stereo not drawn) [Example 20, 1-(n-butyl)sulfonyl-3-(2,4,4′-trichlorobenzhydryloxy)azetidine], the Ki is 5.5 nM.
